Data: PubChem BioAssay AID330 (DTP/NCI, 2004)
Values joined by “and” are separate entries in the source; they are usually repeats but may differ in a detail not shown here. Identical values can stand only once. Inconclusive results and toxic doses are left out. How the source made its calls: active means survival T/C of 150% or more; inactive means T/C below 125% in these data.

System: P388 leukemia ip, CD2F1 mice, survival T/C
Experiment: NCI In Vivo Anticancer Drug Screen. Data for tumor model P388 Leukemia (intraperitoneal) in CD2F1 (CDF1) mice
Details: endpoint: median survival time, higher = longer survival
Outline: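 Mice carrying the transplanted tumor received test compound or vehicle. Survival was recorded in each group, and the value is the treated-group measurement divided by that of the vehicle-treated control group.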

[1] = dose: 50.0 mg/kg/injection, schedule: Q01DX005 (ip), vehicle: saline with Tween-80
[2] = dose: 60.0 mg/kg/injection, schedule: Q01DX005 (ip), vehicle: saline with Tween-80
[3] = dose: 60.0 mg/kg/injection, schedule: Q01DX005 (ip), vehicle: Klucel (hydroxypropylcellulose) (HPC)
[4] = dose: 25.0 mg/kg/injection, schedule: Q01DX009 (ip), vehicle: water
[5] = dose: 50.0 mg/kg/injection, schedule: Q01DX009 (ip), vehicle: water
[6] = dose: 12.5 mg/kg/injection, schedule: Q04DX003 (ip), vehicle: saline
[7] = dose: 25.0 mg/kg/injection, schedule: Q04DX003 (ip), vehicle: saline
[8] = dose: 100.0 mg/kg/injection, schedule: Q04DX003 (ip), vehicle: Klucel (hydroxypropylcellulose) (HPC)
[9] = dose: 200.0 mg/kg/injection, schedule: Q04DX003 (ip), vehicle: Klucel (hydroxypropylcellulose) (HPC)
[10] = dose: 50.0 mg/kg/injection, schedule: Q01DX009 (ip), vehicle: saline with Tween-80
[11] = dose: 100.0 mg/kg/injection, schedule: Q01DX009 (ip), vehicle: saline with Tween-80
[12] = dose: 50.0 mg/kg/injection, schedule: Q01DX009 (ip), vehicle: Klucel (hydroxypropylcellulose) (HPC)
[13] = dose: 100.0 mg/kg/injection, schedule: Q01DX009 (ip), vehicle: Klucel (hydroxypropylcellulose) (HPC)
[14] = dose: 200.0 mg/kg/injection, schedule: Q01DX009 (ip), vehicle: Klucel (hydroxypropylcellulose) (HPC)
[15] = dose: 200.0 mg/kg/injection, schedule: Q04DX003 (ip), vehicle: saline

Measured: T/C

CC(C)(C=C(c1ccccc1)c1ccccc1)C=C(c1ccccc1)c1ccccc1
inactive: [1] 95 % of control | dose: 100.0 mg/kg/injection, schedule: Q01DX005 (ip), vehicle: saline with Tween-80 98 % of control | dose: 200.0 mg/kg/injection, schedule: Q01DX005 (ip), vehicle: saline with Tween-80 95 % of control

CN1CCCOC(c2ccccc2)c2ccsc2CC1 (centres undefined)
inactive: dose: 7.5 mg/kg/injection, schedule: Q01DX005 (ip), vehicle: saline with Tween-80 101 % of control | dose: 15.0 mg/kg/injection, schedule: Q01DX005 (ip), vehicle: saline with Tween-80 102 % of control | dose: 30.0 mg/kg/injection, schedule: Q01DX005 (ip), vehicle: saline with Tween-80 102 % of control | [2] 101 % of control and 93 % of control

Oc1ccc2c3c1OC1CCCC4[C@H](C2)N(Cc2ccoc2)CC[C@@]314 (some centres undefined)
inactive: dose: 50.0 mg/kg/injection, schedule: Q01DX009 (ip), vehicle: saline 91 % of control | dose: 100.0 mg/kg/injection, schedule: Q01DX009 (ip), vehicle: saline 98 % of control | dose: 200.0 mg/kg/injection, schedule: Q01DX009 (ip), vehicle: saline 91 % of control

Cn1cc(N)c2ccccc2c1=O
inactive: [1] 103 % of control

C=CC12CN(C)C3C4COC(CC41)C1(C(=O)Nc4ccccc41)C32 (centres undefined)
inactive: dose: 1.25 mg/kg/injection, schedule: Q01DX009 (ip), vehicle: saline 103 % of control | dose: 2.5 mg/kg/injection, schedule: Q01DX009 (ip), vehicle: saline 88 % of control | dose: 5.0 mg/kg/injection, schedule: Q01DX009 (ip), vehicle: saline 95 % of control | dose: 7.5 mg/kg/injection, schedule: Q01DX005 (ip), vehicle: Klucel (hydroxypropylcellulose) (HPC) 98 % of control | dose: 10.0 mg/kg/injection, schedule: Q01DX009 (ip), vehicle: saline 106 % of control | dose: 15.0 mg/kg/injection, schedule: Q01DX005 (ip), vehicle: Klucel (hydroxypropylcellulose) (HPC) 95 % of control | dose: 30.0 mg/kg/injection, schedule: Q01DX005 (ip), vehicle: Klucel (hydroxypropylcellulose) (HPC) 98 % of control | [3] 102 % of control

O=NNc1nc(-c2ccccc2)ns1
inactive: dose: 1.56 mg/kg/injection, schedule: Q01DX009 (ip), vehicle: water 100 % of control | dose: 3.12 mg/kg/injection, schedule: Q01DX009 (ip), vehicle: water 100 % of control and 101 % of control | dose: 6.25 mg/kg/injection, schedule: Q01DX009 (ip), vehicle: water 104 % of control and 97 % of control | dose: 12.5 mg/kg/injection, schedule: Q01DX009 (ip), vehicle: water 100 % of control and 97 % of control | [4] 101 % of control and 97 % of control | [5] 100 % of control

COc1ccc2c(c1)/C(=C/CCN(C)C)c1ccccc1S2
inactive: [6] 113 % of control | [7] 109 % of control

O=C1CCCC2=C1C(c1ccccc1)/C(=N/O)O2 (centres undefined)
inactive: dose: 50.0 mg/kg/injection, schedule: Q04DX003 (ip), vehicle: Klucel (hydroxypropylcellulose) (HPC) 97 % of control | [8] 101 % of control | [9] 100 % of control and 90 % of control

Cn1nnc(-c2ccc([N+](=O)[O-])cc2)n1
inactive: [8] 105 % of control | [9] 103 % of control | dose: 400.0 mg/kg/injection, schedule: Q04DX003 (ip), vehicle: Klucel (hydroxypropylcellulose) (HPC) 103 % of control

Cc1cnc2c(N)cc(C)c(C)c2c1
inactive: dose: 12.5 mg/kg/injection, schedule: Q01DX009 (ip), vehicle: saline with Tween-80 94 % of control | dose: 25.0 mg/kg/injection, schedule: Q01DX009 (ip), vehicle: saline with Tween-80 100 % of control | [10] 99 % of control and 100 % of control | [11] 86 % of control

CC12CC3(C)CC(C)(C1)CC(Br)(C2)C3
inactive: [12] 100 % of control | [13] 99 % of control | [14] 97 % of control

COc1ccc2[nH]c3c(C)c4cc[n+](CCCCCCCC[n+]5ccc6c(C)c7[nH]c8ccc(OC)cc8c7c(C)c6c5)cc4c(C)c3c2c1
inactive: dose: 0.78 mg/kg/injection, schedule: Q04DX003 (ip), vehicle: other 117 % of control | dose: 25.0 mg/kg/injection, schedule: Q04DX003 (ip), vehicle: other 122 % of control | dose: 50.0 mg/kg/injection, schedule: Q04DX003 (ip), vehicle: other 119 % of control

O=NNc1ccc2cc3ccc(NN=O)cc3nc2c1
inactive: [4] 122 % of control | [5] 106 % of control and 97 % of control

O=C1c2ccccc2C(=O)N1CCC[P+](c1ccccc1)(c1ccccc1)c1ccccc1
inactive: dose: 1.56 mg/kg/injection, schedule: Q01DX009 (ip), vehicle: saline 122 % of control

CC1(C)COCN1CN1COCC1(C)C
inactive: dose: 0.78 mg/kg/injection, schedule: Q04DX003 (ip), vehicle: saline 100 % of control | dose: 1.56 mg/kg/injection, schedule: Q04DX003 (ip), vehicle: saline 101 % of control | dose: 3.13 mg/kg/injection, schedule: Q04DX003 (ip), vehicle: saline 100 % of control | [6] 111 % of control | [7] 102 % of control | dose: 50.0 mg/kg/injection, schedule: Q04DX003 (ip), vehicle: saline 120 % of control | dose: 100.0 mg/kg/injection, schedule: Q04DX003 (ip), vehicle: saline 123 % of control | [15] 107 % of control

COC(=O)c1ccc(SCCC2(COS(C)(=O)=O)OCCO2)cc1
inactive: [12] 106 % of control | [13] 102 % of control | [14] 96 % of control

CC(=NC(C)C)Nc1ccccc1
inactive: [10] 104 % of control | [11] 105 % of control

COc1cc2c(cc1OC)C13CC[N+]4(C)CC5=CCOC6CC(=O)N2C1C6C5CC34[O-] (centres undefined)
inactive: [3] 99 % of control | dose: 120.0 mg/kg/injection, schedule: Q01DX005 (ip), vehicle: Klucel (hydroxypropylcellulose) (HPC) 99 % of control | dose: 240.0 mg/kg/injection, schedule: Q01DX005 (ip), vehicle: Klucel (hydroxypropylcellulose) (HPC) 111 % of control

C[C@@]12O[C@]1(C)[C@@H]1[C@H]3O[C@H]3[C@@H]2N(C(=O)OCC(Cl)(Cl)Cl)N1C(=O)OCC(Cl)(Cl)Cl
inactive: dose: 50.0 mg/kg/injection, schedule: Q01DX005 (ip), vehicle: Klucel (hydroxypropylcellulose) (HPC) 100 % of control | dose: 100.0 mg/kg/injection, schedule: Q01DX005 (ip), vehicle: Klucel (hydroxypropylcellulose) (HPC) 105 % of control | dose: 200.0 mg/kg/injection, schedule: Q01DX005 (ip), vehicle: Klucel (hydroxypropylcellulose) (HPC) 100 % of control

O=C1C2CSCN2C(=O)C2CSCN12 (centres undefined)
inactive: dose: 100.0 mg/kg/injection, schedule: Q01DX001 (ip), vehicle: Klucel (hydroxypropylcellulose) (HPC) 102 % of control | dose: 200.0 mg/kg/injection, schedule: Q01DX001 (ip), vehicle: Klucel (hydroxypropylcellulose) (HPC) 99 % of control | dose: 400.0 mg/kg/injection, schedule: Q01DX001 (ip), vehicle: Klucel (hydroxypropylcellulose) (HPC) 105 % of control

O=P(c1ccccc1)(c1ccccc1)C(O)c1cccs1 (centres undefined)
inactive: [12] 90 % of control | [13] 88 % of control | [14] 92 % of control

O/N=C(/CN1CCOCC1)c1ccccc1
inactive: [12] 105 % of control | [13] 100 % of control | [14] 102 % of control

CC(=N\O)/C(C)=N/O.CC(=N\O)/C(C)=N/O.[Cl][Rh][Cl]
inactive: [15] 100 % of control | dose: 400.0 mg/kg/injection, schedule: Q04DX003 (ip), vehicle: saline 95 % of control

O=C(O)C1C(C(=O)O)C2(Cl)C(Cl)=C(Cl)C1(Cl)C2(Cl)Cl.[Co] (centres undefined)
inactive: dose: 50.0 mg/kg/injection, schedule: Q01DX001 (ip), vehicle: saline 109 % of control | dose: 100.0 mg/kg/injection, schedule: Q01DX001 (ip), vehicle: saline 109 % of control | dose: 200.0 mg/kg/injection, schedule: Q01DX001 (ip), vehicle: saline 109 % of control

CC(=O)SC1C(=O)N(C)C(SC(C)=O)C(=O)N1C (centres undefined)
inactive: dose: 6.25 mg/kg/injection, schedule: Q01DX009 (ip), vehicle: saline 107 % of control | dose: 12.5 mg/kg/injection, schedule: Q01DX009 (ip), vehicle: saline 110 % of control

Cc1nn(C23CC4CC(CC(C4)C2)C3)c(C(Cl)Cl)c1Cl
inactive: [2] 100 % of control | dose: 120.0 mg/kg/injection, schedule: Q01DX005 (ip), vehicle: saline with Tween-80 94 % of control | dose: 240.0 mg/kg/injection, schedule: Q01DX005 (ip), vehicle: saline with Tween-80 94 % of control
